# Assay results as given in publication PMC3022755, “HP1 Recruits Activity-Dependent Neuroprotective Protein to H3K9me3 Marked Pericentromeric Heterochromatin for Silencing of Major Satellite Repeats” (PLoS ONE, 2011).
# Where no end group is shown, it is not given here. [ ]: non-standard residue; d: D form. Lys(Me3) = C[N+](C)(C)CCCC[C@H](N)C(=O)O
# What was measured:
# recombinant HP1β = experiment: Fluorescence polarization binding assay; parameters: species or system human; details: fluorescein-labeled peptide, averaged from three independent titration reactions
# [1] = system: wild type FLAG-tagged ADNP; experiment: H3K9me3 peptide pulldown, recruitment of ADNP by mutant HP1β; type: binding; details: compared to wild type HP1β; wild type FLAG-tagged ADNP in TNT reticulocyte extract; western blot
# [2] = system: HP1 dimerization and H3K9me3; details: ref [27]; cited from earlier work
# Description: (§1) We analyzed this recombinant, mutant HP1βprotein in H3K9me3 peptide pulldown experiments with wild type FLAG-tagged ADNP expressed in TNT reticulocyte extract (Figure 5D). W170A mutation had no effect on HP1β bi ...
# PxVxL = details: ref [27]; cited from earlier work
# Description: as §1
# H3K9me3 peptide [3] = experiment: H3K9me3 peptide pulldown with mutant HP1β; type: binding; details: H3K9me3 peptides on magnetic beads; with ADNP-FLAG; western blot
# HP1 isoform proteins = type: binding, human
# FLAG-tagged ADNP = experiment: H3 peptide pulldown with TNT-expressed FLAG-tagged ADNP; type: binding; details: TNT reticulocyte extract, western blot
# [4] = system: three isoforms of HP1, HP1α HP1β and HP1γ, and CDYL1; experiment: H3 peptide pulldown of HeLa S3 nuclear extract, MS/MS identification; type: binding; details: SDS-PAGE
# ADNP = experiment: H3 peptide pulldown of HeLa S3 nuclear extract, western blot; type: binding; details: immobilized H3 (aa 1-21) peptides on magnetic beads, monoclonal anti-ADNP
# [5] = system: pericentromeric heterochromatin in NIH3T3 cells; experiment: Localization of CFP-ADNP constructs in living NIH3T3 cells; type: cell-based, mouse; details: transient co-expression with RFP-HP1β; unfixed, living cells of low expression level; confocal
# [6] = system: pericentromeric heterochromatin in NIH3T3 cells; experiment: Localization of YFP-ADNP fusion proteins in living NIH3T3 cells; type: cell-based, mouse; details: inducible stable NIH3T3 lines, unfixed; for localization to pericentromeric heterochromatin: Hoechst 33342
# H3K9me3 peptide [7] = type: binding
molecule,measurement,setting,value
"EDDSYEAR[Lys(Me3)]SFLTKY [ADNPK767me3 (FP peptide), ADNPK767me3 peptide used for FP measurements]",HP1 binding,recombinant HP1β,does not bind
same,HP1 binding,recombinant HP1β; listed as methylated peptide spanning the ADNP ARKS region,did not detect binding
HP1β W170A: recombinant His6-HP1β with tryptophan 170 mutated to alanine,recruitment of ADNP to H3K9me3 in presence of mutant HP1β,[1],severely impaired
same,HP1 dimerization and H3K9me3 binding,[2],without affecting HP1 dimerization and H3K9me3 binding
same,HP1-PxVxL interaction,PxVxL,abolish HP1-PxVxL interaction
same,HP1β binding to H3K9me3 peptide,H3K9me3 peptide [3],no effect on HP1β binding to the H3K9me3 peptide
"H3K9me3: H3 (aa 1-21) peptide trimethylated at lysine 9, used for pulldown",recruitment of HP1 isoform proteins to peptide,HP1 isoform proteins,concomitant with recruitment of the different HP1 isoform proteins to the H3K9me3 matrix
same,binding of ADNP to peptide,FLAG-tagged ADNP; co-incubated with recombinant HP1α,bound specifically to the H3K9me3 peptide
same,binding of ADNP to peptide,FLAG-tagged ADNP; co-incubated with recombinant HP1β,bound specifically to the H3K9me3 peptide
same,binding of ADNP to peptide,FLAG-tagged ADNP; co-incubated with recombinant HP1γ,bound specifically to the H3K9me3 peptide
same,binding of ADNP to peptide,FLAG-tagged ADNP; without HP1,did not bind to any of the differentially loaded beads
same,proteins specifically interacting with H3 tail depending on K9me3,[4],several known H3K9me3 interaction partners like the three isoforms of HP1
same,enrichment of ADNP on peptide matrix,ADNP,specific enrichment of ADNP exclusively on the H3K9me3 matrix
"CFP-ADNP(701-846): CFP fusion of the ADNP homeodomain alone, containing NLS (protein, UniProt Q9Z103 701-846, looked up, fragment, CFP fusion, CFP fusion of the ADNP homeodomain alone, containing NLS) APSRLNQSPGLAPVKRTYEQMEFPLLKKRKLEEDADSPSCFEEKPEEPVVLALDPKGHEDDSYEARKSFLTKYFNKQPYPTRREIEKLAASLWLWKSDIASHFSNKRKKCVRDCEKYKPGVLLGFNMKELNKVKHEMDFDAEWLFE",localization to pericentromeric heterochromatin,[5],co-localized with HP1β
"K767R: YFP-ADNP fusion protein with K767R mutation in ARKS motif (protein, UniProt Q9Z103 1-1108, looked up, variant K767R, YFP fusion, YFP-ADNP fusion protein with K767R mutation in ARKS motif) Activity-dependent …: MFQLPVNNLGSLRKARKTVKKILSDIGLEYCKEHIEDFKQFEPNDFYLKNTTWEDVGLWDPSLTKNQDYRTKPFCCSACPFSSKFFSAYKSHFRNVHSEDFENRILLNCPYCTFNADKKTLETHIKIFHAPNSSAPSSSLSTFKDKNKNDGLKPKQADNVEQAVYYCKKCTYRDPLYEIVRKHIYREHFQHVAAPYIAKAGEKSLNGAVSLGTNAREECNIHCKRCLFMPKSYEALVQHVIEDHERIGYQVTAMIGHTNVVVPRAKPLMLIAPKPQDKKGMGLPPRISSLASGNVRSLPSQQMVNRLSIPKPNLNSTGVNMMSNVHLQQNNYGVKSVGQSYGVGQSVRLGLGGNAPVSIPQQSQSVKQLLPSGNGRSFGLGAEQRPPAAARYSLQTANTSLPPGQVKSPSVSQSQASRVLGQSSSKPPPAATGPPPSNHCATQKWKICTICNELFPENVYSVHFEKEHKAEKVPAVANYIMKIHNFTSKCLYCNRYLPTDTLLNHMLIHGLSCPYCRSTFNDVEKMAAHMRMVHIDEEMGPKTDSTLSFDLTLQQGSHTNIHLLVTTYNLRDAPAESVAYHAQNNAPVPPKPQPKVQEKADVPVKSSPQAAVPYKKDVGKTLCPLCFSILKGPISDALAHHLRERHQVIQTVHPVEKKLTYKCIHCLGVYTSNMTASTITLHLVHCRGVGKTQNGQDKTNAPSRLNQSPGLAPVKRTYEQMEFPLLKKRKLEEDADSPSCFEEKPEEPVVLALDPKGHEDDSYEARRSFLTKYFNKQPYPTRREIEKLAASLWLWKSDIASHFSNKRKKCVRDCEKYKPGVLLGFNMKELNKVKHEMDFDAEWLFENHDEKDSRVNASKTVDKKHNLGKEDDSFSDSFEHLEEESNGSGSPFDPVFEVEPKIPSDNLEEPVPKVIPEGALESEKLDQKEEEEEEEEEDGSKYETIHLTEEPAKLMHDASDSEVDQDDVVEWKDGASPSESGPGSQQISDFEDNTCEMKPGTWSDESSQSEDARSSKPAAKKKATVQDDTEQLKWKNSSYGKVEGFWSKDQSQWENASENAERLPNPQIEWQNSTIDSEDGEQFDSMTDGVADPMHGSLTGVKLSSQQA",localization to pericentromeric heterochromatin,[6],no effect on ADNP localization
"K767R mutant ADNP: FLAG-tagged ADNP, lysine 767 within the ARKS motif changed to arginine (protein, UniProt Q9Z103 1-1108, looked up, variant K767R, FLAG tag, FLAG-tagged ADNP, lysine 767 within the ARKS motif changed to arginine) Activity-dependent …: MFQLPVNNLGSLRKARKTVKKILSDIGLEYCKEHIEDFKQFEPNDFYLKNTTWEDVGLWDPSLTKNQDYRTKPFCCSACPFSSKFFSAYKSHFRNVHSEDFENRILLNCPYCTFNADKKTLETHIKIFHAPNSSAPSSSLSTFKDKNKNDGLKPKQADNVEQAVYYCKKCTYRDPLYEIVRKHIYREHFQHVAAPYIAKAGEKSLNGAVSLGTNAREECNIHCKRCLFMPKSYEALVQHVIEDHERIGYQVTAMIGHTNVVVPRAKPLMLIAPKPQDKKGMGLPPRISSLASGNVRSLPSQQMVNRLSIPKPNLNSTGVNMMSNVHLQQNNYGVKSVGQSYGVGQSVRLGLGGNAPVSIPQQSQSVKQLLPSGNGRSFGLGAEQRPPAAARYSLQTANTSLPPGQVKSPSVSQSQASRVLGQSSSKPPPAATGPPPSNHCATQKWKICTICNELFPENVYSVHFEKEHKAEKVPAVANYIMKIHNFTSKCLYCNRYLPTDTLLNHMLIHGLSCPYCRSTFNDVEKMAAHMRMVHIDEEMGPKTDSTLSFDLTLQQGSHTNIHLLVTTYNLRDAPAESVAYHAQNNAPVPPKPQPKVQEKADVPVKSSPQAAVPYKKDVGKTLCPLCFSILKGPISDALAHHLRERHQVIQTVHPVEKKLTYKCIHCLGVYTSNMTASTITLHLVHCRGVGKTQNGQDKTNAPSRLNQSPGLAPVKRTYEQMEFPLLKKRKLEEDADSPSCFEEKPEEPVVLALDPKGHEDDSYEARRSFLTKYFNKQPYPTRREIEKLAASLWLWKSDIASHFSNKRKKCVRDCEKYKPGVLLGFNMKELNKVKHEMDFDAEWLFENHDEKDSRVNASKTVDKKHNLGKEDDSFSDSFEHLEEESNGSGSPFDPVFEVEPKIPSDNLEEPVPKVIPEGALESEKLDQKEEEEEEEEEDGSKYETIHLTEEPAKLMHDASDSEVDQDDVVEWKDGASPSESGPGSQQISDFEDNTCEMKPGTWSDESSQSEDARSSKPAAKKKATVQDDTEQLKWKNSSYGKVEGFWSKDQSQWENASENAERLPNPQIEWQNSTIDSEDGEQFDSMTDGVADPMHGSLTGVKLSSQQA",binding of ADNP protein to H3K9me3 peptide,H3K9me3 peptide [7],bound to H3K9me3 peptide in a HP1β dependent manner
"V821E: YFP-ADNP fusion protein with V821E mutation in PGVLL motif (protein, UniProt Q9Z103 1-1108, looked up, variant V821E, YFP fusion, YFP-ADNP fusion protein with V821E mutation in PGVLL motif) Activity-dependent …: MFQLPVNNLGSLRKARKTVKKILSDIGLEYCKEHIEDFKQFEPNDFYLKNTTWEDVGLWDPSLTKNQDYRTKPFCCSACPFSSKFFSAYKSHFRNVHSEDFENRILLNCPYCTFNADKKTLETHIKIFHAPNSSAPSSSLSTFKDKNKNDGLKPKQADNVEQAVYYCKKCTYRDPLYEIVRKHIYREHFQHVAAPYIAKAGEKSLNGAVSLGTNAREECNIHCKRCLFMPKSYEALVQHVIEDHERIGYQVTAMIGHTNVVVPRAKPLMLIAPKPQDKKGMGLPPRISSLASGNVRSLPSQQMVNRLSIPKPNLNSTGVNMMSNVHLQQNNYGVKSVGQSYGVGQSVRLGLGGNAPVSIPQQSQSVKQLLPSGNGRSFGLGAEQRPPAAARYSLQTANTSLPPGQVKSPSVSQSQASRVLGQSSSKPPPAATGPPPSNHCATQKWKICTICNELFPENVYSVHFEKEHKAEKVPAVANYIMKIHNFTSKCLYCNRYLPTDTLLNHMLIHGLSCPYCRSTFNDVEKMAAHMRMVHIDEEMGPKTDSTLSFDLTLQQGSHTNIHLLVTTYNLRDAPAESVAYHAQNNAPVPPKPQPKVQEKADVPVKSSPQAAVPYKKDVGKTLCPLCFSILKGPISDALAHHLRERHQVIQTVHPVEKKLTYKCIHCLGVYTSNMTASTITLHLVHCRGVGKTQNGQDKTNAPSRLNQSPGLAPVKRTYEQMEFPLLKKRKLEEDADSPSCFEEKPEEPVVLALDPKGHEDDSYEARKSFLTKYFNKQPYPTRREIEKLAASLWLWKSDIASHFSNKRKKCVRDCEKYKPGELLGFNMKELNKVKHEMDFDAEWLFENHDEKDSRVNASKTVDKKHNLGKEDDSFSDSFEHLEEESNGSGSPFDPVFEVEPKIPSDNLEEPVPKVIPEGALESEKLDQKEEEEEEEEEDGSKYETIHLTEEPAKLMHDASDSEVDQDDVVEWKDGASPSESGPGSQQISDFEDNTCEMKPGTWSDESSQSEDARSSKPAAKKKATVQDDTEQLKWKNSSYGKVEGFWSKDQSQWENASENAERLPNPQIEWQNSTIDSEDGEQFDSMTDGVADPMHGSLTGVKLSSQQA",localization to pericentromeric heterochromatin,[6],strong reduction of the ADNP signal at regions of pericentromeric heterochromatin
same,residual signal at pericentromeric heterochromatin,[6]; in all cells analyzed,faint but significant signal
